Consider 21 molecules from patent US20240109917A1 (ACTELION PHARMACEUTICALS LTD, priority 2020, published 2024).

The target of one assay is PDGFRβ (Rattus norvegicus (Rat), UniProt Q05030). In words: PDGFRβ Cellular Assay (PDGFRb P-Y751 HTRF in A10 cells stimulated with PDGF-BB). The class given is cell-based. As to conditions: read-out: PDGFR Cellular IC50. The essentials: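 Rat A10 cells, plated overnight, were treated with compound for 3 hours, then stimulated with PDGF-BB (working stock 100 ng/mL in 10% FBS medium). After lysis, PDGFRβ P-Y751 was detected by HTRF.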
(In general: TR-FRET usually uses a lanthanide donor and a delayed reading to cut background.)

Assay [1] deals with His6-TEV-PDGFRβ (557-1016) (Homo sapiens (Human), UniProt P09619). Kind of assay: PDGFRβ HTRF Assay. It counts as biochemical. As to conditions: read-out: PDGFR HTRF IC50. An outline of the steps: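 Human PDGFRβ (557-1016) pre-incubated with compound for 30 min at RT in pH 7.5 HEPES/MgCl2/EGTA/Brij-35/DTT buffer. Reaction started with ATP and TK-biotin peptide, run 3 h at RT, then quenched with EDTA-containing Eu-cryptate antibody/streptavidin-XL665. HTRF 665/620 nm ratio read after 60 min; percent inhibition relative to DMSO and 10 μM imatinib controls.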

The target of assay [2] is Tb-labeled inactive PDGFRβ (Homo sapiens (Human), UniProt P09619). In words: PDGFRβ LanthaScreen Assay. The class given is binding. As to conditions: read-out: PDGFR Lantha IC50.
Tb-labeled inactive PDGFRβ, sequence (P09619 33-1106): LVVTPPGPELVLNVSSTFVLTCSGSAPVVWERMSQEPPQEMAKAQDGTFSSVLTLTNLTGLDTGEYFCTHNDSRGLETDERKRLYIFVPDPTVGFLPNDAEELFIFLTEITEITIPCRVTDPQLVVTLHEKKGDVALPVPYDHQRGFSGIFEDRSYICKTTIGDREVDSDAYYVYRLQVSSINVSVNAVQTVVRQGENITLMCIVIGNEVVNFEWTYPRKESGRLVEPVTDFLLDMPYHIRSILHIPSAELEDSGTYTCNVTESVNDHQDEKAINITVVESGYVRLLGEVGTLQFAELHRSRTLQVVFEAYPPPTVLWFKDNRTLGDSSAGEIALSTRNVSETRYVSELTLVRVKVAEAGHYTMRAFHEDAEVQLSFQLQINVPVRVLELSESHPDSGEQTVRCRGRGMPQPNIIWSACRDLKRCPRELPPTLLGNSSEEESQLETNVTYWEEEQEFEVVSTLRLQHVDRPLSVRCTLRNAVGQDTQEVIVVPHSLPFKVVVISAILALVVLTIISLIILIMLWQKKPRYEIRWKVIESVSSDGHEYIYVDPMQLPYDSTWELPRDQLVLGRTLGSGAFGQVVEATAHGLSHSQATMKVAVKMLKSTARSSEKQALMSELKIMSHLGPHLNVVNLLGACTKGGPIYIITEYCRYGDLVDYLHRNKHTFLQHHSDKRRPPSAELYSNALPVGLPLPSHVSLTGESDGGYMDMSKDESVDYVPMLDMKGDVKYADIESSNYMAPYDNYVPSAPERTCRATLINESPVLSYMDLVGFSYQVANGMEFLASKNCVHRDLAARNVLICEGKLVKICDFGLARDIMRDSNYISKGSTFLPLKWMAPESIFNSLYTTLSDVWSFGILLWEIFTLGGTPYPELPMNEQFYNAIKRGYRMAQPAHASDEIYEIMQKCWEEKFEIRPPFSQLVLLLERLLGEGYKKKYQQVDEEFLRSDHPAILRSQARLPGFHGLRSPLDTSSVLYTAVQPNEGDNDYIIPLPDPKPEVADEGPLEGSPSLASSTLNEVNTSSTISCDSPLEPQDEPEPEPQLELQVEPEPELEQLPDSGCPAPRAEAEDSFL

PDGFRβ, sequence (Q05030 32-1097): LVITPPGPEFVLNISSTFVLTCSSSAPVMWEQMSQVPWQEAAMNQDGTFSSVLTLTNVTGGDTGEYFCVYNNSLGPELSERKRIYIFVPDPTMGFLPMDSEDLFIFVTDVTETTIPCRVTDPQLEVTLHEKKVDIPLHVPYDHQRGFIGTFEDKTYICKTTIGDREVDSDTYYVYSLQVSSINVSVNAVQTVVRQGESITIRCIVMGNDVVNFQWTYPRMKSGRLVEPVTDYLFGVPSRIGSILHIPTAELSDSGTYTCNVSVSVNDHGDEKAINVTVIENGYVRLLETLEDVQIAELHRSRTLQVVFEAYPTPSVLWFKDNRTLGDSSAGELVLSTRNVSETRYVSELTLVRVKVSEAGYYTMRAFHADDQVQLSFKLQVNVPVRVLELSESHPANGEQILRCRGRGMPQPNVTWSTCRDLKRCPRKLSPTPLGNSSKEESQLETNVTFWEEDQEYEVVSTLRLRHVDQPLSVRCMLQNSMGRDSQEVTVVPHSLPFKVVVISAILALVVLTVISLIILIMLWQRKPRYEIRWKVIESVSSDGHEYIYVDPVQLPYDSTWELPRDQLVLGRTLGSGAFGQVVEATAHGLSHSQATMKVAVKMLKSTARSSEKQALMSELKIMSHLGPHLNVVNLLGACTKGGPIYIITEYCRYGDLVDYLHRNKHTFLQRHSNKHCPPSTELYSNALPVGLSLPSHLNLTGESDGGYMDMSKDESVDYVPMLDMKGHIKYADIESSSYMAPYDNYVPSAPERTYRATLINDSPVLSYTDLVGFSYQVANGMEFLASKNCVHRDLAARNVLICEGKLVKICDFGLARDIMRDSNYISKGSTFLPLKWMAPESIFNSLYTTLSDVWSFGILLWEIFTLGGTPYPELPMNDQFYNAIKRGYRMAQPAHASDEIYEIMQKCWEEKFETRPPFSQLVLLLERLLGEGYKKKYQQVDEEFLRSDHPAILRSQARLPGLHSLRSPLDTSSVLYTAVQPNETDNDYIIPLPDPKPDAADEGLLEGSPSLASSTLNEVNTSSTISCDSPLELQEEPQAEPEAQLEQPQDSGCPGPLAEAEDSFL
His6-TEV-PDGFRβ (557-1016), sequence (P09619 557-1016): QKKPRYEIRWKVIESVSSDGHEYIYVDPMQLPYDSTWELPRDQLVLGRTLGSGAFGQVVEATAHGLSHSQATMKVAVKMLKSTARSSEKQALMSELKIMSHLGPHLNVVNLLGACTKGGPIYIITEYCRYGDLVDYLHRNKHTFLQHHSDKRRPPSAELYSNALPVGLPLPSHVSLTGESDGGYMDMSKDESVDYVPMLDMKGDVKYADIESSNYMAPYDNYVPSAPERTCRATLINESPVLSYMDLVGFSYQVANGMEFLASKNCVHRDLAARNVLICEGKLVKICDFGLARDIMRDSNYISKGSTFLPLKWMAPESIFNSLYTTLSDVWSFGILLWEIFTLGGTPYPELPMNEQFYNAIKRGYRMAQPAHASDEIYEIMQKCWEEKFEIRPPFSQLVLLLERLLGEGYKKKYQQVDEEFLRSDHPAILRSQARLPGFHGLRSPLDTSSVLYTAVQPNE

Consider `Cc1ncc(C(=O)NCCN2CCC3(CC3)C2)cc1NC(=O)c1cnn2cc(-c3cnn(C)c3)sc12` [Example 118, N-(5-((2-(5-azaspiro[2.4]heptan-5-yl)ethyl)carbamoyl)-2-methylpyridin-3-yl)-2-(1-methyl-1H-pyrazol-4-yl)pyrazolo[5,1-b]thiazole-7-carboxamide], for which the results for the IC50 (at PDGFRβ; in assay [1]; in assay [2]) were 55.5 nM, 0.3 nM and 7.1 nM, respectively.

Consider `Cc1ncc(C(=O)NCCN2CCC3(CC3)C2)cc1NC(=O)c1cnn2cc(-c3cnn(C)c3C)sc12` [Example 170, N-(5-((2-(5-azaspiro[2.4]heptan-5-yl)ethyl)carbamoyl)-2-methylpyridin-3-yl)-2-(1,5-dimethyl-1H-pyrazol-4-yl)pyrazolo[5,1-b]thiazole-7-carboxamide], for which the results for the IC50 (on PDGFRβ; in assay [1]; in assay [2]) were 33.7 nM, 0.3 nM and 4.1 nM, respectively.

Consider `Cc1ncc(C(=O)NCCN2CCC3(CCC3)C2)cc1NC(=O)c1cnn2cc(-c3cnn(C)c3)sc12` [Example 113, N-(5-((2-(6-azaspiro[3.4]octan-6-yl)ethyl)carbamoyl)-2-methylpyridin-3-yl)-2-(1-methyl-1H-pyrazol-4-yl)pyrazolo[5,1-b]thiazole-7-carboxamide], for which the values for the IC50 (at PDGFRβ; in assay [1]; in assay [2]) were 11.5 nM, under 0.1 nM and 1.4 nM, respectively.

In the case of `Cc1ncc(C(=O)NCCN2CCCC2(C)C)cc1NC(=O)c1cnn2cc(-c3cncnc3)sc12` [Example 139, N-(5-((2-(2,2-dimethylpyrrolidin-1-yl)ethyl)carbamoyl)-2-methylpyridin-3-yl)-2-(pyrimidin-5-yl)pyrazolo[5,1-b]thiazole-7-carboxamide], the IC50 on PDGFRβ is 164 nM; in assay [1], 5.3 nM; in assay [2], 182 nM.

For the molecule `Cc1ncc(C(=O)NCCN2CC(C)(C)C2)cc1NC(=O)c1cnn2cc(-c3cnn(C)c3)sc12` [Example 126, N-(5-((2-(3,3-dimethylazetidin-1-yl)ethyl)carbamoyl)-2-methylpyridin-3-yl)-2-(1-methyl-1H-pyrazol-4-yl)pyrazolo[5,1-b]thiazole-7-carboxamide], the values for the IC50 (on PDGFRβ; in assay [1]; in assay [2]) were 80.1 nM, 0.3 nM and 10.3 nM, respectively.

With `Cc1ncc(C(=O)NCCN2CCC23CCC3)cc1NC(=O)c1cnn2cc(-c3cnn(C)c3C)sc12` [Example 169, N-(5-((2-(1-azaspiro[3.3]heptan-1-yl)ethyl)carbamoyl)-2-methylpyridin-3-yl)-2-(1,5-dimethyl-1H-pyrazol-4-yl)pyrazolo[5,1-b]thiazole-7-carboxamide], the IC50 at PDGFRβ stood at 15 nM; in assay [1] it was 0.3 nM; in assay [2], 2.8 nM.

Turning to `Cc1ncc(C(=O)NCCN2CC3CCC2CC3)cc1NC(=O)c1cnn2cc(-c3ccc4oc(=O)[nH]c4c3)sc12` [Example 145, N-(5-((2-(2-azabicyclo[2.2.2]octan-2-yl)ethyl)carbamoyl)-2-methylpyridin-3-yl)-2-(2-oxo-2,3-dihydrobenzo[d]oxazol-5-yl)pyrazolo[5,1-b]thiazole-7-carboxamide], the results for the IC50 (on PDGFRβ; in assay [1]; in assay [2]) were 407 nM, 0.2 nM and 1.4 nM, respectively.

Consider `Cc1ncc(C(=O)NCCN2CCCOCC2)cc1NC(=O)c1cnn2cc(-c3cnn(C)c3)sc12` [Example 121, N-(5-((2-(1,4-oxazepan-4-yl)ethyl)carbamoyl)-2-methylpyridin-3-yl)-2-(1-methyl-1H-pyrazol-4-yl)pyrazolo[5,1-b]thiazole-7-carboxamide], for which the IC50 on PDGFRβ stood at 80.4 nM; in assay [1], 0.4 nM; in assay [2], 13.1 nM.

Take `Cc1ncc(NC(=O)CCN2CCCC2(C)C)cc1NC(=O)c1cnn2cc(-c3ccnn3C)sc12` [Example 11, N-(5-(3-(2,2-dimethylpyrrolidin-1-yl)propanamido)-2-methyl-pyridin-3-yl)-2-(1-methyl-1H-pyrazol-5-yl)pyrazolo[5,1-b]thiazole-7-carboxamide]: the figures for the IC50 (at PDGFRβ; in assay [1]; in assay [2]) were 10.6 nM, 0.5 nM and 5 nM, respectively.

Regarding `Cc1ncc(C(=O)NCCN2CCCC23COC3)cc1NC(=O)c1cnn2cc(-c3c(C)nn(C)c3C)sc12` [Example 179, N-(5-((2-(2-oxa-5-azaspiro[3.4]octan-5-yl)ethyl)carbamoyl)-2-methylpyridin-3-yl)-2-(1,3,5-trimethyl-1H-pyrazol-4-yl)pyrazolo[5,1-b]thiazole-7-carboxamide], the IC50 at PDGFRβ came out at 54.5 nM; in assay [1], 1 nM; in assay [2] it was 6.9 nM.

Turning to `Cc1ncc(C(=O)NCCN2CC3CC(C3)C2)cc1NC(=O)c1cnn2cc(-c3cnn(C)c3)sc12` [Example 5, N-(5-((2-(3-azabicyclo[3.1.1]heptan-3-yl)ethyl)carbamoyl)-2-methylpyridin-3-yl)-2-(1-methyl-1H-pyrazol-4-yl)pyrazolo[5,1-b]thiazole-7-carboxamide], the IC50 came to 26.2 nM on PDGFRβ, 0.4 nM in assay [1] and 5.8 nM in assay [2].

As to `Cc1ncc(NC(=O)CCN2CC(C)(C)C2)cc1NC(=O)c1cnn2cc(-c3cnn(C)c3)sc12` [Example 96, N-(5-(3-(3,3-dimethylazetidin-1-yl)propanamido)-2-methylpyridin-3-yl)-2-(1-methyl-1H-pyrazol-4-yl)pyrazolo[5,1-b]thiazole-7-carboxamide], the values for the IC50 (at PDGFRβ; in assay [1]; in assay [2]) were 17 nM, 0.6 nM and 28.4 nM, respectively.

Consider `COCCn1cc(-c2cn3ncc(C(=O)Nc4cc(C(=O)NCCN5CCC(F)(F)CC5)cnc4C)c3s2)cn1` [Example 165, N-(5-((2-(4,4-difluoropiperidin-1-yl)ethyl)carbamoyl)-2-methylpyridin-3-yl)-2-(1-(2-methoxyethyl)-1H-pyrazol-4-yl)pyrazolo[5,1-b]thiazole-7-carboxamide], for which the IC50 is 11.4 nM at PDGFRβ, 0.6 nM in assay [1] and 3.4 nM in assay [2].

For the molecule `Cc1ncc(C(=O)NCCN2CCCC2(C)C)cc1NC(=O)c1cnn2cc(-c3ccn(C)n3)sc12` [Example 9, N-(5-((2-(2,2-dimethylpyrrolidin-1-yl)ethyl)carbamoyl)-2-methylpyridin-3-yl)-2-(1-methyl-1H-pyrazol-3-yl)pyrazolo[5,1-b]thiazole-7-carboxamide], the values for the IC50 (at PDGFRβ; in assay [1]; in assay [2]) were 16.8 nM, 0.3 nM and 3.5 nM, respectively.

Regarding `Cc1ncc(C(=O)NCCN2CCOCC23CC3)cc1NC(=O)c1cnn2cc(-c3cnn(C)c3)sc12` [Example 110, N-(5-((2-(7-oxa-4-azaspiro[2.5]octan-4-yl)ethyl)carbamoyl)-2-methylpyridin-3-yl)-2-(1-methyl-1H-pyrazol-4-yl)pyrazolo[5,1-b]thiazole-7-carboxamide], the IC50 is 35.4 nM on PDGFRβ, 0.6 nM in assay [1] and 5.7 nM in assay [2].

In the case of `Cc1ncc(C(=O)NCCN2CC3CCC2CC3)cc1NC(=O)c1cnn2cc(-c3cnn(CC(N)=O)c3)sc12` [Example 150, N-(5-((2-(2-azabicyclo[2.2.2]octan-2-yl)ethyl)carbamoyl)-2-methylpyridin-3-yl)-2-(1-(2-amino-2-oxoethyl)-1H-pyrazol-4-yl)pyrazolo[5,1-b]thiazole-7-carboxamide], the results for the IC50 (on PDGFRβ; in assay [1]; in assay [2]) were over 2000 nM, 0.6 nM and 5.5 nM, respectively.

For the molecule `CC(=O)Nc1ccnc(-c2cn3ncc(C(=O)Nc4cc(C(=O)NCCN5CC6CCC5CC6)cnc4C)c3s2)c1` [Example 146, N-(5-((2-(2-azabicyclo[2.2.2]octan-2-yl)ethyl)carbamoyl)-2-methylpyridin-3-yl)-2-(4-acetamidopyridin-2-yl)pyrazolo[5,1-b]thiazole-7-carboxamide], the IC50 was found to be 858 nM at PDGFRβ, 0.6 nM in assay [1] and 4.3 nM in assay [2].

Regarding `Cc1ncc(C(=O)NCCN2CCCC23COC3)cc1NC(=O)c1cnn2cc(-c3cn(C)nc3C)sc12` [Example 176, N-(5-((2-(2-oxa-5-azaspiro[3.4]octan-5-yl)ethyl)carbamoyl)-2-methylpyridin-3-yl)-2-(1,3-dimethyl-1H-pyrazol-4-yl)pyrazolo[5,1-b]thiazole-7-carboxamide], the IC50 at PDGFRβ was 29.1 nM; in assay [1], 0.5 nM; in assay [2], 3.1 nM.

In the case of `Cc1ncc(C(=O)NCCN2CCC3(CC3)C2)cc1NC(=O)c1cnn2cc(-c3ccccn3)sc12` [Example 160, N-(5-((2-(5-azaspiro[2.4]heptan-5-yl)ethyl)carbamoyl)-2-methylpyridin-3-yl)-2-(pyridin-2-yl)pyrazolo[5,1-b]thiazole-7-carboxamide], the IC50 at PDGFRβ is 25.3 nM; in assay [1], 0.2 nM; in assay [2] it was 4.4 nM.

Consider `COCCn1cc(-c2cn3ncc(C(=O)Nc4cc(C(=O)NCCN5CC6(CCC6)C5)cnc4C)c3s2)cn1` [Example 168, N-(5-((2-(2-azaspiro[3.3]heptan-2-yl)ethyl)carbamoyl)-2-methylpyridin-3-yl)-2-(1-(2-methoxyethyl)-1H-pyrazol-4-yl)pyrazolo[5,1-b]thiazole-7-carboxamide], for which the IC50 came out at 371 nM at PDGFRβ, 0.6 nM in assay [1] and 17.4 nM in assay [2].

`Cc1ncc(C(=O)NCCN2C3CCCC2CCC3)cc1NC(=O)c1cnn2cc(-c3cnn(C)c3)sc12` [Example 4, N-(5-((2-(9-azabicyclo[3.3.1]nonan-9-yl)ethyl)carbamoyl)-2-methylpyridin-3-yl)-2-(1-methyl-1H-pyrazol-4-yl)pyrazolo[5,1-b]thiazole-7-carboxamide]: the results for the IC50 (at PDGFRβ; in assay [1]; in assay [2]) were 11.7 nM, 0.3 nM and 2.3 nM, respectively.

The term IC50 denotes the concentration at which inhibition is half-maximal.
